From PMC8338929, “Acetylation turns leucine into a drug by membrane transporter switching” (Scientific Reports, 2021)

What was measured:
Type in all cases: cell-based
[1] = biological target: T1, human LAT1 (SLC7A5) (Homo sapiens, UniProt Q01650); assay: LAT1-mediated cellular uptake in transfected MDCK-II cells; conditions: HBSS pH 7.4, 3 min, 37 °C
T1 construct: host or cells: MDCK-II
Protocol: Transport studies with human PepT1 (SLC15A1), LAT1 (SLC7A5) and MCT1 (SLC16A1) were conducted in MDCK-II cells expressing the human transporter or control cells expressing a vector with Green Fluorescence Protein. Cells were transfected using a proprietary, transient transfection system (OPTI-EXPRESSION Technology, BioIVT). The results from the control cells were used to correct for substrate permeation by routes other than the transporter being investigated in the study. […] Specifically, Net Transporter Mediated Substrate Uptake (pmol/min/cm^2) = (Cellular accumulation in the presence of the transporter) − (Mean cellular accumulation in the absence of the transporter). MDCK-II cells were maintained in DMEM with low glucose and 10% FBS. Cells were used at passages up to 40 were seeded at 60,000 ± 10,000 cells/well on 96-well plates approximately 24 h before transfection, and transport assays were performed approximately 48 h after transfection. […]
Transport studies with PepT1 were conducted in 96-well cell culture plate with wells containing a monolayer of MDCK-II cells grown on a permeable support and a corresponding 96-well receiver tray. […] Then a 30-µL sample was taken and mixed with 200 µL of scintillation fluid and scintillation counted (1450 Microbeta, Perkin-Elmer). […]

[2] = biological target: T2, human MCT1 (SLC16A1) (Homo sapiens, UniProt P53985); assay: MCT1-mediated cellular uptake in transfected MDCK-II cells; conditions: 1 min, room temperature, Michaelis-Menten fit
T2 construct: host or cells: MDCK-II
T2 sequence (P53985 1-500): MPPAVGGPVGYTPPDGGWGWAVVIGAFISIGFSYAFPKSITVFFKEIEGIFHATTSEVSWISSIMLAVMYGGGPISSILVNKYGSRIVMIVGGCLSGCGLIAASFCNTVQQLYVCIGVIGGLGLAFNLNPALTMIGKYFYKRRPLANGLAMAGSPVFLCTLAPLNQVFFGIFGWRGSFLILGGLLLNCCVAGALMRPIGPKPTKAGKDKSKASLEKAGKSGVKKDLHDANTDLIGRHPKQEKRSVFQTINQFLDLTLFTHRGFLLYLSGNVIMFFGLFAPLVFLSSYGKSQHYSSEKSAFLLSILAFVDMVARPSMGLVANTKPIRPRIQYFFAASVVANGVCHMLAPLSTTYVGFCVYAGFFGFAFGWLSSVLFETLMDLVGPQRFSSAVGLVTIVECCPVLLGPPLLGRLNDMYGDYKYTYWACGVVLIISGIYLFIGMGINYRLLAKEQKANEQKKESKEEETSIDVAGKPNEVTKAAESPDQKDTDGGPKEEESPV
Protocol: (§1) Transport studies with human PepT1 (SLC15A1), LAT1 (SLC7A5) and MCT1 (SLC16A1) were conducted in MDCK-II cells expressing the human transporter or control cells expressing a vector with Green Fluorescence Protein. Cells were transfected using a proprietary, transient transfection system (OPTI-EXPRESSION Technology, BioIVT). The results from the control cells were used to correct for substrate permeation by routes other than the transporter being investigated in the study. […] Specifically, Net Transporter Mediated Substrate Uptake (pmol/min/cm^2) = (Cellular accumulation in the presence of the transporter) − (Mean cellular accumulation in the absence of the transporter). MDCK-II cells were maintained in DMEM with low glucose and 10% FBS. Cells were used at passages up to 40 were seeded at 60,000 ± 10,000 cells/well on 96-well plates approximately 24 h before transfection, and transport assays were performed approximately 48 h after transfection. Transport studies in MDCK-II cells were conducted in 96-well insert plates with permeable membrane (0.4 µm) and receiver tray (Millipore MultiScreen Filter 96-well).
(§2) Transport studies with PepT1 were conducted in 96-well cell culture plate with wells containing a monolayer of MDCK-II cells grown on a permeable support and a corresponding 96-well receiver tray. Cell plates are maintained at 37 °C in 5% CO2 atmosphere prior to initiation of the transport experiment. Pre-incubation was conducted in HBSS, pH 7.4. The transport experiments were conducted in HBSS with Bis–Tris, pH 5.5, without phenol red. Both pre-incubation and incubation were conducted at 37 °C. All final assay solutions of probe substrate, reference inhibitor or test article contain 0.5% (v/v) DMSO (vehicle control). The culture plate insert […] was washed with warm HBSS three times and then blotted dry. The culture plate wells […] were washed with warm HBSS three times. […] Then a 30-µL sample was taken and mixed with 200 µL of scintillation fluid and scintillation counted (1450 Microbeta, Perkin-Elmer). […]

[3] = biological target: T2, human MCT1 (SLC16A1); assay: Inhibition of MCT1 uptake of probe substrate 2-thiophene glyoxylate in MDCK-II cells
Protocol: as §1
as §2, with “times. 100 µL of 37 °C HBSS pH 7.4 pre-incubation buffer to the apical compartment as follows: for the probe substrate transport assay, the HBSS contains vehicle; for the reference inhibition assay, the HBSS contains the reference inhibitor at the required concentration; for the test article assays, the HBSS in each well contains test compound at the specified concentration. The plates were incubated at 37 °C with orbital shaking at approximately 60 rpm for the pre-incubation (30 min), aspirated and then 100 µL of the experimental buffer was added.” for “times.”

T1 sequence (Q01650 whole entry): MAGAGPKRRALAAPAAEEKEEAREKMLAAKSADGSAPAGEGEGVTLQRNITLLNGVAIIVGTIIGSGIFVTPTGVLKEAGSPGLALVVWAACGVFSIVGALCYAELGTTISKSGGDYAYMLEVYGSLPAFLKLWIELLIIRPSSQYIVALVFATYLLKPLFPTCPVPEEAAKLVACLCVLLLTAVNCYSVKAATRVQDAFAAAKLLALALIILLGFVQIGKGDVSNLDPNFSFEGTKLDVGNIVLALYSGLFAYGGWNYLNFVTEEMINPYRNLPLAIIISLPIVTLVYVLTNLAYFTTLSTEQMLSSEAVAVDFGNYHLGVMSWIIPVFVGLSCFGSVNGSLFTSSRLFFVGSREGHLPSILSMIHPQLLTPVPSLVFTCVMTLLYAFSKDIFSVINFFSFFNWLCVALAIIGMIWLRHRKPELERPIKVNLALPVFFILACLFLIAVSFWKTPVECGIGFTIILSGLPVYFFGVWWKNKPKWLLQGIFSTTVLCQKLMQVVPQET
T1 sequence (P08195 102-630 partner): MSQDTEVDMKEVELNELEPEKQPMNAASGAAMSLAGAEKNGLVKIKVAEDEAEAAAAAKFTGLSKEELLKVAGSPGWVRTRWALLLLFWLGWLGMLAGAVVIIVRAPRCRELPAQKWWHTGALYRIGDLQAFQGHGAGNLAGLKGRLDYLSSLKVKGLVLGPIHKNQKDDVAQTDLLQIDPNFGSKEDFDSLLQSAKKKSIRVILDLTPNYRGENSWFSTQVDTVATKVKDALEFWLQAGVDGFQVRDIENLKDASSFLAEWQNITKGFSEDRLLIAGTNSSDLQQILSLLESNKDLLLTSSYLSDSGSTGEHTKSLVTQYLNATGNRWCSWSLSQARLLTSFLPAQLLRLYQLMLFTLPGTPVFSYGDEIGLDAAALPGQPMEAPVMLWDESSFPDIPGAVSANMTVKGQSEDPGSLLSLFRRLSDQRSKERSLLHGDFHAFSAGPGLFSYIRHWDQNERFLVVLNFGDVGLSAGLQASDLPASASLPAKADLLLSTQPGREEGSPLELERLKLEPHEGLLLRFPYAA

Compound: CC(=O)N[C@@H](CC(C)C)C(=O)O [N-acetyl-L-leucine]
- substrate of LAT1 (uptake) [1]: not transported
- substrate of LAT1 (uptake) ([1]; listed as N-acetyl-leucine): not a substrate
- Vmax MCT1 uptake [2]: 224
- Ki ([3]; Cheng-Prusoff equation from IC50, competitive inhibition assumed, read-out: affinity (Ki) MCT1): 4.3 mM
- IC50 ([3]; probe 2-thiophene glyoxylate 500 µM, positive control phloretin 500 µM): 15 mM
